Assay results reported in PMC10669656, “ADMET and Solubility Analysis of New 5-Nitroisatine-Based Inhibitors of CDK2 Enzymes” (Biomedicines, 2023).
Values after ≈ are worked out from the molar mass of the structure shown. Values joined by “and” are separate entries in the source; they are usually repeats but may differ in a detail not shown here. Equal entries are not always repeated.

Tests used:
Type in all cases: physicochemical
[1] = Solubility in neat solvents, shake-flask with spectrophotometric determination; details: for solubility at 24 h: 25 °C, organic solvent or mixture, thermodynamic from solid
Protocol: (§1) The calibration curves for each derivative were obtained using successful dilutions of initial stock solutions followed by spectrophotometric measurements of the obtained solutions with decreasing concentration. The concentration ranges for the derivatives 1, 2, and 3 were 0.0081–0.0405 mg/mL, 0.0077–0.0385 mg/mL, and 0.0068–0.017 mg/mL, respectively. Methanol was used both as a solvent, as well as a reference for spectrophotometric measurements. […] The A360 spectrophotometer from AOE Instruments was used for the preparation of the calibration curves. […] Three calibration curves were prepared for each derivative and then averaged.
(§2) A multi-step procedure was employed in order to find the solubility of the studied derivatives in the selected solvents. First of all, the excess amount of the considered compound was added to test tubes containing either neat solvents or their mixtures with water in different proportions, thus forming binary solvents. Saturated solutions were obtained in this way, placed in a Shaker Incubator ES-20/60 from Biosan, and incubated for 24 h at 298.1 K. The temperature adjustment was possible with a 0.1-degree accuracy, and the variance within a 24 h cycle was 0.5 degrees. The samples were simultaneously mixed at 60 rev/min. After incubation, the samples were filtered with the help of plastic syringes equipped with PTFE filters with 0.22 µm pore size. The obtained filtrates were diluted with methanol in another set of test tubes. In order to determine the mole fractions of a solute in the solution, 1 mL of the filtered samples was weighed in 10 mL volumetric flasks using a RADWAG AS 110 R2.PLUS analytical balance. The samples diluted with methanol were measured spectrophotometrically using the same instrument as was used in the case of calibration curves. The spectra were recorded in the wavelength range of 190–500 nm, and the resolution was 1 nm. Methanol was used if further dilution of the sample was required, and it was also used as a reference for calibrating the spectrophotometer. The absorbance values at 315 nm, 321 nm, and 321 nm were taken into account for derivatives 1, 2, and 3, respectively. Based on the calibration curves, the concentration of the solute in the samples was determined together with its mole fraction. Three separate measurements were conducted, and the final values are the results of averaging them.

[2] = Solubility in DMSO-water binary mixtures; details: for solubility at 24 h: 25 °C, thermodynamic from solid
Protocol: as §1, §2

[3] = Solubility in NMP-water binary mixtures; details: for solubility at 24 h: thermodynamic from solid
Protocol: as §1, §2

[4] = neat γ-nonanoic lactone, 298.1 K

Nc1cccc(C(=O)NN=C2C(=O)Nc3ccc([N+](=O)[O-])cc32)c1 [derivative 2, 3-Amino-N′-[5-nitro-2-oxo-1,2-dihydro-3H-indol-3-ylidene]benzohydrazide]
solubility at 24 h ([1]; neat DMF, 298.1 K): 15300 µg/mL (≈ 47 mM) | solubility at 24 h ([1]; neat DMP, 298.1 K): 290 µg/mL (≈ 0.892 mM) | solubility at 24 h ([1]; neat DMSO, 298.1 K): 21400 µg/mL (≈ 65.8 mM) | solubility at 24 h ([1]; neat NMP, 298.1 K): 32700 µg/mL (≈ 101 mM) | solubility at 24 h ([1]; neat acetone, 298.1 K): 900 µg/mL (≈ 2.77 mM) | solubility at 24 h ([1]; neat acetonitrile, 298.1 K): 610 µg/mL (≈ 1.88 mM) | solubility at 24 h ([1]; neat cyrene, 298.1 K): 750 µg/mL (≈ 2.31 mM) | solubility at 24 h ([1]; neat diglyme, 298.1 K): 1190 µg/mL (≈ 3.66 mM) | solubility at 24 h ([1]; neat dioxane, 298.1 K): 960 µg/mL (≈ 2.95 mM) | solubility at 24 h ([1]; neat ethyl lactate, 298.1 K): 560 µg/mL (≈ 1.72 mM) | solubility at 24 h ([1]; neat methanol, 298.1 K): 310 µg/mL (≈ 0.953 mM) | solubility at 24 h ([1]; neat tetraglyme, 298.1 K): 1790 µg/mL (≈ 5.5 mM) | solubility at 24 h ([1]; neat triglyme, 298.1 K): 420 µg/mL (≈ 1.29 mM) | solubility at 24 h ([1]; neat γ-heptalactone, 298.1 K): 1090 µg/mL (≈ 3.35 mM) | solubility at 24 h [1, 4]: 710 µg/mL (≈ 2.18 mM) | solubility at 24 h ([1]; neat 1-butanol): 70 µg/mL (≈ 0.215 mM) | solubility x ([1]; neat 1-butanol, 298.1 K): 0.21 (0.01) × 10^−4 mole fraction | solubility at 24 h ([1]; neat 1-propanol): 100 µg/mL (≈ 0.307 mM) | solubility x ([1]; neat 1-propanol, 298.1 K): 0.23 (0.01) × 10^−4 mole fraction | solubility at 24 h ([1]; neat 4FM): 3470 µg/mL (≈ 10.7 mM) | solubility x ([1]; neat 4FM, 298.1 K): 1.06 (0.04) × 10^−3 mole fraction | solubility x ([1]; neat DMF, 298.1 K): 3.66 × 10^−3 mole fraction and 3.66 (0.06) × 10^−3 mole fraction | solubility x ([1]; neat DMP, 298.1 K): 1.05 (0.03) × 10^−4 mole fraction | solubility x ([1]; neat DMSO, 298.1 K): 4.63 × 10^−3 mole fraction and 4.63 (0.14) × 10^−3 mole fraction | solubility x ([1]; neat NMP, 298.1 K): 9.80 × 10^−3 mole fraction and 9.80 (0.13) × 10^−3 mole fraction | solubility x ([1]; neat acetonitrile, 298.1 K): 0.96 (0.03) × 10^−4 mole fraction | solubility x ([1]; neat cyrene, 298.1 K): 2.36 (0.04) × 10^−4 mole fraction | solubility x ([1]; neat diglyme, 298.1 K): 5.22 (0.10) × 10^−4 mole fraction | solubility x ([1]; neat dioxane, 298.1 K): 2.49 (0.05) × 10^−4 mole fraction | solubility at 24 h ([1]; neat ethanol): 150 µg/mL (≈ 0.461 mM) | solubility x ([1]; neat ethanol, 298.1 K): 0.26 (0.01) × 10^−4 mole fraction | solubility x ([1]; neat ethyl lactate, 298.1 K): 1.95 (0.04) × 10^−4 mole fraction | solubility x ([1]; neat methanol, 298.1 K): 0.39 (0.01) × 10^−4 mole fraction | solubility x ([1]; neat tetraglyme, 298.1 K): 1.20 (0.02) × 10^−3 mole fraction | solubility x ([1]; neat triglyme, 298.1 K): 2.34 (0.06) × 10^−4 mole fraction | solubility x ([1]; neat γ-heptalactone, 298.1 K): 4.25 (0.06) × 10^−4 mole fraction | solubility x [1, 4]: 3.46 (0.07) × 10^−4 mole fraction | solubility at 24 h ([1]; neat ε-caprolactone): 1010 µg/mL (≈ 3.1 mM) | solubility x ([1]; neat ε-caprolactone, 298.1 K): 3.25 (0.09) × 10^−4 mole fraction | solubility at 24 h ([2]; DMSO-water binary mixture, aqueous with cosolvent or surfactant or cyclodextrin, x*DMSO 0.1, 298.1 K): 3220 µg/mL (≈ 9.9 mM) | solubility at 24 h ([2]; DMSO-water binary mixture, aqueous with cosolvent or surfactant or cyclodextrin, x*DMSO 0.2, 298.1 K): 6950 µg/mL (≈ 21.4 mM) | solubility at 24 h ([2]; DMSO-water binary mixture, aqueous with cosolvent or surfactant or cyclodextrin, x*DMSO 0.3, 298.1 K): 10800 µg/mL (≈ 33.2 mM) | solubility at 24 h ([2]; DMSO-water binary mixture, aqueous with cosolvent or surfactant or cyclodextrin, x*DMSO 0.4, 298.1 K): 14300 µg/mL (≈ 44 mM) | solubility at 24 h ([2]; DMSO-water binary mixture, aqueous with cosolvent or surfactant or cyclodextrin, x*DMSO 0.5, 298.1 K): 18400 µg/mL (≈ 56.6 mM) | solubility at 24 h ([2]; DMSO-water binary mixture, aqueous with cosolvent or surfactant or cyclodextrin, x*DMSO 0.6, 298.1 K): 21000 µg/mL (≈ 64.6 mM) | solubility at 24 h ([2]; DMSO-water binary mixture, aqueous with cosolvent or surfactant or cyclodextrin, x*DMSO 0.7, 298.1 K): 24100 µg/mL (≈ 74.1 mM) | solubility at 24 h ([2]; DMSO-water binary mixture, aqueous with cosolvent or surfactant or cyclodextrin, x*DMSO 0.8, 298.1 K): 25400 µg/mL (≈ 78.1 mM) | solubility at 24 h ([2]; DMSO-water binary mixture, aqueous with cosolvent or surfactant or cyclodextrin, x*DMSO 0.9, 298.1 K): 24100 µg/mL (≈ 74.1 mM) | solubility at 24 h ([2]; DMSO-water series, organic solvent or mixture, x*DMSO 1.0, 298.1 K): 21400 µg/mL (≈ 65.8 mM) | solubility x ([2]; x*DMSO 0.1, 298.1 K): 2.11 (0.02) × 10^−4 mole fraction | solubility x ([2]; x*DMSO 0.2, 298.1 K): 5.76 (0.06) × 10^−4 mole fraction | solubility x ([2]; x*DMSO 0.3, 298.1 K): 1.08 (0.01) × 10^−3 mole fraction | solubility x ([2]; x*DMSO 0.4, 298.1 K): 1.69 (0.02) × 10^−3 mole fraction | solubility x ([2]; x*DMSO 0.5, 298.1 K): 2.46 (0.02) × 10^−3 mole fraction | solubility x ([2]; x*DMSO 0.6, 298.1 K): 3.18 (0.03) × 10^−3 mole fraction | solubility x ([2]; x*DMSO 0.7, 298.1 K): 4.01 (0.05) × 10^−3 mole fraction | solubility x ([2]; x*DMSO 0.8, 298.1 K): 4.68 (0.03) × 10^−3 mole fraction | solubility x ([2]; x*DMSO 0.9, 298.1 K): 4.86 (0.08) × 10^−3 mole fraction | solubility x ([2]; x*DMSO 1.0, 298.1 K): 4.63 (0.14) × 10^−3 mole fraction | solubility at 24 h ([3]; NMP-water binary mixture, x*NMP 0.1, 25 °C, aqueous with cosolvent or surfactant or cyclodextrin, x*NMP 0.1, 298.1 K): 5750 µg/mL (≈ 17.7 mM) | solubility at 24 h ([3]; NMP-water binary mixture, x*NMP 0.2, 25 °C, aqueous with cosolvent or surfactant or cyclodextrin, x*NMP 0.2, 298.1 K): 12100 µg/mL (≈ 37.2 mM) | solubility at 24 h ([3]; NMP-water binary mixture, x*NMP 0.3, 25 °C, aqueous with cosolvent or surfactant or cyclodextrin, x*NMP 0.3, 298.1 K): 18200 µg/mL (≈ 56 mM) | solubility at 24 h ([3]; NMP-water binary mixture, x*NMP 0.4, 25 °C, aqueous with cosolvent or surfactant or cyclodextrin, x*NMP 0.4, 298.1 K): 23300 µg/mL (≈ 71.6 mM) | solubility at 24 h ([3]; NMP-water binary mixture, x*NMP 0.7, 25 °C, aqueous with cosolvent or surfactant or cyclodextrin, x*NMP 0.7, 298.1 K): 34500 µg/mL (≈ 106 mM) | solubility at 24 h ([3]; NMP-water binary mixture, x*NMP 0.8, 25 °C, aqueous with cosolvent or surfactant or cyclodextrin, x*NMP 0.8, 298.1 K): 35900 µg/mL (≈ 110 mM) | solubility at 24 h ([3]; NMP-water binary mixture, x*NMP 0.9, 25 °C, aqueous with cosolvent or surfactant or cyclodextrin, x*NMP 0.9, 298.1 K): 34900 µg/mL (≈ 107 mM) | solubility at 24 h ([3]; NMP-water binary solvent, 25 °C, aqueous with cosolvent or surfactant or cyclodextrin, x*NMP 0.5, 298.1 K): 29500 µg/mL (≈ 90.7 mM) | solubility at 24 h ([3]; NMP-water binary solvent, 25 °C, aqueous with cosolvent or surfactant or cyclodextrin, x*NMP 0.6, 298.1 K): 33000 µg/mL (≈ 101 mM) | solubility at 24 h ([3]; NMP-water series, x*NMP 1.0, 25 °C, organic solvent or mixture, x*NMP 1.0, 298.1 K): 32700 µg/mL (≈ 101 mM) | solubility x ([3]; x*NMP 0.1, 298.1 K): 4.43 (0.05) × 10^−4 mole fraction | solubility x ([3]; x*NMP 0.2, 298.1 K): 1.23 (0.01) × 10^−3 mole fraction | solubility x ([3]; x*NMP 0.3, 298.1 K): 2.32 (0.03) × 10^−3 mole fraction | solubility x ([3]; x*NMP 0.4, 298.1 K): 3.53 (0.04) × 10^−3 mole fraction | solubility x ([3]; x*NMP 0.5, 298.1 K): 5.24 (0.06) × 10^−3 mole fraction | solubility x ([3]; x*NMP 0.6, 298.1 K): 6.71 (0.08) × 10^−3 mole fraction | solubility x ([3]; x*NMP 0.7, 298.1 K): 7.95 (0.08) × 10^−3 mole fraction | solubility x ([3]; x*NMP 0.8, 298.1 K): 8.96 (0.09) × 10^−3 mole fraction | solubility x ([3]; x*NMP 0.9, 298.1 K): 9.53 (0.11) × 10^−3 mole fraction | solubility x ([3]; x*NMP 1.0, 298.1 K): 9.80 (0.13) × 10^−3 mole fraction
